Data: patent US9802929B2, “Benzo five-membered nitrogen heterocyclic piperidine or piperazine derivatives and preparation methods and pharmaceutical compositions thereof” (Shenyang Haiwang Biotechnology Co., Ltd., priority 2012, dated 2017)

What was measured:
[1] = test system: Ca^2+ channel; assay: Antagonism of CaCl2 cumulative contraction of rabbit aorta, pA2; details: CaCl2 cumulative contraction after Ca-free hyperkalemia depolarization
Description: Calcium-free K—H solution: Remove CaCl2 from K—H solution, add an equal number of moles of KCl, and add EDTA^−2Na^+ 0.1 mmol/L, while the other components remain unchanged.
Calcium-free hyperkalemia solution: Remove CaCl2 from hyperkalemia solution, add an equal number of moles of KCl, and add EDTA^−2Na^+ 0.1 mmol/L, while the other components remain unchanged.
(§1) Cut the chest open quickly after stunning, strip out the descending aorta, then after removing the surrounding connective tissue and adipose tissue (if performed serotonin receptor antagonist experiments, endothelial cells should be removed using a smooth stainless steel bars), cut the vessels into 3-5 mm vascular ring, then pass the steel hook through the blood vessel ring, with one end is fixed to the vent hook and the other end connected to the tension transducer, then place the specimens into bath tube containing 20 mL of nutrient solution, and record tension change by tension transducer. Maintain tube temperature at 37±0.5° C., and pass bubbles (95% O2+5% CO2) into the solution as a speed of 1-2 bubbles/minute. Place an initial load of 1.5 g on the rings, and change nutrient every 20 minutes, then balance for 2 hours and start test after baseline readings are stabilized.
After the tension is stabilized, wash the specimen three times and incubate with Ca-free K—H solution for 40 minutes; depolarize with Ca-free hyperkalemia solution for 20 minutes, and then add CaCl2 (10^−6-10^−2 mol/L) to the tube until a maximum response is achieved, and then record the curve. Then wash with K—H solution repeatedly, and replace with fresh K—H solution every 20 minutes; after balancing for 60 minutes and the baseline values are stabilized, wash the specimen again three times, and incubate with Ca-free K—H solution for 40 minutes; depolarize with Ca-free hyperkalemia solution for 20 minutes, and then add compound II-36 (3×10^−6 mol/L) to the tube, and incubate for 20 minutes; then add CaCl2 (10^−6-10^−2 mol/L) until a maximum response is achieved, and then record the curve. Mark CaCl2 contraction as ordinate using maximum response as 100% base. […] PA2 value of compound II-36 is 5.61±0.04 against CaCl2 contraction effect on rabbit aorta.
After the tension is stabilized, wash the specimen three times and incubate with Ca-free K—H solution for 40 minutes; depolarize with Ca-free hyperkalemia solution for 20 minutes, and then add CaCl2 (10^−6-10^−2 mol/L) to the tube until a maximum response is achieved, and then record the curve. […]

[2] = test system: Kunming mice; assay: Bone marrow micronucleus test; details: mouse, in vivo
Description: After four days of continuous administration, perform bone marrow micronucleus test on the 5th day.
Positive contro, Cyclophosphamide 60 mg/kg/day; negative control, saline solution 0.1 ml/10 g/day. After four days of continuous administration, perform bone marrow micronucleus test on the 5th day.
The mice were sacrificed by cervical dislocation, and quickly stripped out of the femur and sternum;
blood and muscles were removed, epiphysis was cleaned; then sternum bone marrow was transfer with a hemostat squeeze onto clean slides with drops of calf serum or wash the femoral the marrow with fetal calf serum directly onto clean slides; after mixing, adjust slides well; then put the adjusted and aired slide into a staining jar filled with methanol, and allow to fix for 15 minutes; and then take it out and place in air until dry out; then, use freshly prepared Giemsa application solution (one sample of Giemsa stock solution and nine samples of phosphate buffer pH 6.8), stained for 10 minutes to wash away slide dye with small stream of water, and then observe under a microscope after it is dried.

[3] = test system: SD rats; assay: Effect on blood pressure of urethane-anesthetized SD rats; type: in vivo; details: 4.0 mg/kg orally
Description: Four SD rats were anesthetized with urethane ([…]); after vital signs were stable, measure blood pressure through carotid artery cannulation. After blood pressure is stabilized, compound II-36 was administered orally (4.0 mg/kg, body weight), and blood pressure changes with time were recorded; study results are shown in Table 4, 5 and 6.

[4] = test system: 5-HT2A receptors; assay: Antagonism of 5-HT cumulative contraction of rabbit aorta, pA2
Description: as §1
After the tension is stabilized, record a certain length of the curve, and add 5-HT (10^−7-3×10^−4 mol/L) to the tube until a maximum response is achieved, and then record the curve. Then wash the specimen with K—H solution repeatedly, balance for 1.5 h, add compound II-36 (3×10^−6 mol/L), and 20 minutes later, add 5-HT following a same procedure. Mark 5-HT contraction as ordinate using maximum response as 100% base. […]

[5] = time after administration 90, n = 4

| SMILES | PA2 value against CaCl2 contraction [1] | polychromatic erythrocytes with micronucleus ([2]; both, Kunming, 4 days) | bone marrow micronucleus test result [2] | hypotensive effect (in words) [3] | time until blood pressure recovered to the level before administration [3] [h] | mean arterial pressure (MAP) ([3]; time after administration 0, n = 4) [mmHg] | mean arterial pressure (MAP) ([3]; time after administration 15, n = 4) [mmHg] | mean arterial pressure (MAP) ([3]; time after administration 30, n = 4) [mmHg] | mean arterial pressure (MAP) ([3]; time after administration 60, n = 4) [mmHg] | Systolic blood pressure (SBP) [3, 5] [mmHg] | mean arterial pressure (MAP) [3, 5] [mmHg] | mean arterial pressure (MAP) ([3]; time after administration 120, n = 4) [mmHg] | mean arterial pressure (MAP) ([3]; time after administration 150, n = 4) [mmHg] | mean arterial pressure (MAP) ([3]; time after administration 180, n = 4) [mmHg] | mean arterial pressure (MAP) ([3]; time after administration 210, n = 4) [mmHg] | PA2 value against 5-HT contraction [4] |
| --- | --- | --- | --- | --- | --- | --- | --- | --- | --- | --- | --- | --- | --- | --- | --- | --- |
| FC(F)(F)c1cccc(N2CCN(CCCCn3cnc4ccccc43)CC2)c1 [Compound II-36, 1-(4-(4-(3-trifluoromethylphenyl)piperazin-1-yl)butyl)-1H-benzimidazole] | 5.61±0.04 | 2.0±0.333 ‰ | negative | significant hypotensive effect | 3.5 | 91.50 | 73.40 | 74.52 | 72.77 | 98.71 | 68.81 | 83.12 | 84.47 | 84.83 | 88.54 |  |
| FC(F)(F)c1cccc(N2CCN(CCCCn3nnc4ccccc43)CC2)c1 [Compound II-65, 1-(4-(4-(3-trifluoromethylphenyl)piperazin-1-yl)butyl)-1H-benzotriazole] | 6.56±0.032 |  |  |  |  |  |  |  |  |  |  |  |  |  |  | 6.726±0.089 |
| c1ccc2c(c1)nnn2CCCCN1CCN(c2nsc3ccccc23)CC1 [Compound II-68, 3-(4-(4-(1H-benzotriazol-1-yl)butyl)piperazin-1-yl)benzisothiazole] | 5.36±0.26 |  |  |  |  |  |  |  |  |  |  |  |  |  |  | 8.86±0.14 |
